# Data published in patent US20190055267A1, “ORGANOTRIFLUOROBORATE MIMICS OF AMINO ACIDS AND USES THEREOF” (The United States of America, as represented by the …, priority 2015, published 2019).
# Like-named read-outs stand apart in the source and are kept apart here.
# Experiments:
# [1] = Solvolysis of the BF3 moiety in phosphate buffer; type: physicochemical
# Description: See also, Liu et al., Chem. Eur. J., 2015, 21:3924-8, incorporated herein by reference in its entirety.
# [2] = COOH group of the corresponding amino acid; cited from earlier work
# amino acid transporters [3] = assay: Uptake-concentration kinetics, Michaelis-Menten fitting, in U87MG cells; type: cell-based, human; conditions: 60 min at 37° C. in PBS, read-out: KM/μM, ^18F-AA-BF3 (BAA)
# Method: The uptake of BAA in U87MG cells was measured at increasing concentrations in phosphate-buffered saline (PBS) and plotted against the concentration of BAA. […] The KM values of ^18F-BAAs were calculated by Michaelis-Menten fitting using Igor Pro 6.22.
# The uptake-concentration correlations (FIGS. 12-15) fit well with Michaelis-Menten kinetics, giving the values of Table 4.
# U87MG cells = assay: In vitro competitive inhibition of boramino acid uptake by natural amino acids and transporter inhibitors; conditions: for inhibition of uptake by sodium free medium: U87MG cells
# Method: The U87MG cells were in Dulbecco modified Eagle medium and Minimum Essential Medium under a humidified atmosphere with 5% CO2 at 37° C. The culture media was supplemented with 10% fetal bovine serum, 100 U/mL penicillin, and 100 μg/mL streptomycin. […] Prior to incubation, the cells were washed with phosphate-buffered saline (PBS). […] The cells were then washed 3 times with ice-cold PBS, quenched with 0.1 M of NaOH and the cell-bound radioactivity was counted using a gamma counter. Uptake is defined as percentage of added radioactive dose (% AD).
# The control is incubation with BAA only without competitor.
# UM22B cells = assay: Efflux of radioactivity from cells preloaded with 18F-Leu-BF3; type: cell-based; conditions: UM22B cells loaded 120 min, 120 min post medium incubation
# Method: ^18F-Leu-BF3 was first incubated with UM22B cells in PBS (phosphate buffered saline) for 120 min then was removed, followed by rapidly rinsing the cells with PBS three times. The cancer cells were incubated in medium essential medium for 10, 30, 60, and 120 min, and the residual radioactivity was measured (FIG. 16). The decreasing residual radioactivity is time-dependent, and most of the radioactive boramino acid was excreted from the cell in 90 min (less than 2% left at 120 min post medium incubation).
# The radioactivity from efflux was further analyzed by re-injection into HPLC at 120 min (efflux: excreted from cell; influx: accumulated into cell). Only one peak was observed, and the elution time was corroborative to that for ^18F-Leu-BF3. The elution time here was 15 min, whereas in FIG. 1 the time was 12.5 min. After the data of FIG. 1 was obtained, maintenance was performed on the HPLC, after which the elution time of ^18F-Leu-BF3 on the HPLC was 15 min.
# UM22B xenografts [4] = assay: ICP analysis of boron in tissues after injection; type: in vivo, mice; conditions: 60 min after injection of 10 mg
# Method: Tumor-bearing mice were sacrificed at 60 min after injection of 10 mg of Leu-BF3. UM22B xenografts are dissolve into nitric acid and the resulting solution are analyzed by ICP.
# U87MG human glioma cells = type: cell-based
# [5] = In vivo metabolic stability, HPLC analysis of urine and blood samples; conditions: living animals
# Method: To further evaluate its in vivo metabolic stability, ^18F-Leu-BF3 was also tested in living animals and followed by HPLC analysis of urine and blood samples.
# UM22B xenografts [6] = assay: PET imaging of 18F-Leu-BF3 co-injected with unlabeled Leu-BF3 (BNCT boron delivery); type: in vivo, mice
# Method: All imaging studies were performed as follows. PET scans were obtained and image analysis were performed using an Inveon small-animal PET scanner (Malvern, Pa., USA). About 3.7 MBq of ^18F-AA were administered via tail vein injection under isoflurane anesthesia. For static acquisition, 10-min static PET scans were acquired at 30, 60 and 120 min after injection. For dynamic acquisition, 60 min dynamic PET scans were acquired, followed by a late-time-point scans at 2 h after tracer injection. With the acute inflammation model, 10-min static PET images were acquired at 1 h and 2 h after injection. The images were reconstructed using a 3-dimensional ordered subset expectation maximum algorithm, and no correction was applied for attenuation or scatter. For each scan, regions of interest (ROIs) were drawn using vendor software (ASI Pro 5.2.4.0; Siemens Medical Solutions) on decay-corrected whole-body coronal images. The radioactivity concentrations (accumulation) within the tumor, heart, muscle, liver, brain, and kidneys were obtained from mean pixel values within the multiple ROI volumes and then converted to megabecquerel per milliliter. These values were then divided by the administered activity to obtain (assuming a tissue density of 1 g/mL) an image-ROI-derived percentage injected dose per gram (% ID/g). […]
# [7] = Metabolic stability in mouse plasma, HPLC analysis; type: in vitro ADME; conditions: mouse plasma at 37° C. for 30 and 120 min
# Method: To further evaluate the metabolic stability of boramino acid, ^18F-Leu-BF3 was incubated with mouse plasma at 37° C. for 30 and 120 min. After incubation, most of the radioactivity was extracted from the plasma and followed by HPLC analysis.
# HEK293 cells = assay: Cell uptake of 18F-Leu-BF3 in HEK293 cells; type: cell-based; conditions: 120 min post incubation
# UM22B xenograft = assay: PET imaging and biodistribution in UM22B tumor-bearing mice; type: in vivo; conditions: for bone uptake: PET, tumor-bearing mice; for Average Uptake (% ID/g), blood pool / Average Uptake (% ID/g), hottest voxel cluster of tumor / Average Uptake (% ID/g), kidney / Average Uptake (% ID/g), liver / Average Uptake (% ID/g), muscle / Average Uptake (% ID/g), whole tumor region of interest: UM22B-bearing mice, 120 min after injection
# Method: All imaging studies were performed as follows. PET scans were obtained and image analysis were performed using an Inveon small-animal PET scanner (Malvern, Pa., USA). About 3.7 MBq of ^18F-AA were administered via tail vein injection under isoflurane anesthesia. […] For dynamic acquisition, 60 min dynamic PET scans were acquired, followed by a late-time-point scans at 2 h after tracer injection. With the acute inflammation model, 10-min static PET images were acquired at 1 h and 2 h after injection. The images were reconstructed using a 3-dimensional ordered subset expectation maximum algorithm, and no correction was applied for attenuation or scatter. For each scan, regions of interest (ROIs) were drawn using vendor software (ASI Pro 5.2.4.0; Siemens Medical Solutions) on decay-corrected whole-body coronal images. The radioactivity concentrations (accumulation) within the tumor, heart, muscle, liver, brain, and kidneys were obtained from mean pixel values within the multiple ROI volumes and then converted to megabecquerel per milliliter. These values were then divided by the administered activity to obtain (assuming a tissue density of 1 g/mL) an image-ROI-derived percentage injected dose per gram (% ID/g).
# inflammatory lesion = assay: PET imaging in the acute inflammation model; type: in vivo, mice; conditions: compared with 18F-FDG (FIGS. 26-28)
# Method: All imaging studies were performed as follows. PET scans were obtained and image analysis were performed using an Inveon small-animal PET scanner (Malvern, Pa., USA). About 3.7 MBq of ^18F-AA were administered via tail vein injection under isoflurane anesthesia. For static acquisition, 10-min static PET scans were acquired at 30, 60 and 120 min after injection. For dynamic acquisition, 60 min dynamic PET scans were acquired, followed by a late-time-point scans at 2 h after tracer injection. With the acute inflammation model, 10-min static PET images were acquired at 1 h and 2 h after injection. The images were reconstructed using a 3-dimensional ordered subset expectation maximum algorithm, and no correction was applied for attenuation or scatter. For each scan, regions of interest (ROIs) were drawn using vendor software (ASI Pro 5.2.4.0; Siemens Medical Solutions) on decay-corrected whole-body coronal images. The radioactivity concentrations (accumulation) within the tumor, heart, muscle, liver, brain, and kidneys were obtained from mean pixel values within the multiple ROI volumes and then converted to megabecquerel per milliliter. These values were then divided by the administered activity to obtain (assuming a tissue density of 1 g/mL) an image-ROI-derived percentage injected dose per gram (% ID/g).
# amino acid transporters [8] = conditions: natural amino acid, comparison value; read-out: KM/μM, AA; cited from earlier work
# system P transporters = conditions: read-out: KM value, cited from earlier work
# [9] = time-activity curves, UM22B tumor-bearing mice (FIGS. 21 and 22)
compound,measurement,setting,value
F[B-](F)(F)[C@@H]1CCC[NH2+]1 [Pro-BF3],t1/2/min,[1]; half-life in phosphate buffer at pH 7.4,210.58 h
same,pKB-F,[1]; pK of the first fluorine of the BF3− moiety,4.2615
same,k (solv)/min^−1,"[1]; rate of solvolysis, phosphate buffer pH 7.4",5.476e-05 min⁻¹
same,pka of corres. COOH,[2],1.95
C[C@H]([NH3+])[B-](F)(F)F [^18F-Ala-BF3],Km,amino acid transporters [3],468 ± 87.2 µM
C[C@H]([NH3+])[B-](F)(F)[18F] [^18F-Ala-BF3],inhibition of uptake by sodium free medium,"U87MG cells; 18F-Ala-BF3, 60 min incubation",91.1%
CC(C)C[C@H]([NH3+])[B-](F)(F)F [^18F-Leu-BF3],Km,amino acid transporters [3],25.9 ± 2.4 µM
CC(C)C[C@H]([NH3+])[B-](F)(F)[18F] [^18F-Leu-BF3],residual radioactivity left in cells,UM22B cells,less than 2%
same,boron in tumor,UM22B xenografts [4]; ICP analysis,34.5 ppm
same,tumor-to-brain ratio,UM22B xenografts [4]; boron by ICP analysis,13.5
same,cell uptake,U87MG human glioma cells,~7.5 % AD
same,in vivo metabolic stability,[5],neither participates in protein synthesis nor loses fluoride during in vivo circulation
same,tumor uptake,"UM22B xenografts [6]; 60 min after injection of <1 μg, 200 μg, 1 mg, 5 mg and 25 mg, by PET imaging",~10 % ID/g
same,boron concentration in tumor,"UM22B xenografts [6]; 60 min post-injection, based on calculation",up to 30 ppm
same,defluoridation from boramino acid to boronic acid,[7],almost negligible
same,cell uptake,HEK293 cells,10.4 % AD
same,bone uptake,UM22B xenograft,undetectable
same,"Average Uptake (% ID/g), blood pool",UM22B xenograft,0.47 ± 0.12 % ID/g
same,"Average Uptake (% ID/g), hottest voxel cluster of tumor",UM22B xenograft,12.46 ± 3.0 % ID/g
same,"Average Uptake (% ID/g), kidney",UM22B xenograft,2.32 ± 0.39 % ID/g
same,"Average Uptake (% ID/g), liver",UM22B xenograft,0.83 ± 0.16 % ID/g
same,"Average Uptake (% ID/g), muscle",UM22B xenograft,0.09 ± 0.03 % ID/g
same,"Average Uptake (% ID/g), whole tumor region of interest",UM22B xenograft,6.72 ± 0.91 % ID/g
same,"tumor uptake, peak voxel cluster value","UM22B xenograft; comparison of 11C-Leu and 18F-Leu-BF3, one particular mouse (FIGS. 24 and 25)",~6.5 % ID/g
same,"tumor uptake, peak voxel cluster value",UM22B xenograft; [9],~13 % ID/g
same,uptake in inflammatory lesion,inflammatory lesion,almost negligible
[NH3+][C@@H](Cc1ccccc1)[B-](F)(F)F [^18F-Phe-BF3],Km,amino acid transporters [3],17.6 ± 4.2 µM
[NH3+][C@@H](Cc1ccccc1)[B-](F)(F)[18F] [^18F-Phe-BF3],bone uptake,UM22B xenograft,undetectable
same,"Average Uptake (% ID/g), blood pool",UM22B xenograft,2.46 ± 0.50 % ID/g
same,"Average Uptake (% ID/g), hottest voxel cluster of tumor",UM22B xenograft,13.29 ± 1.18 % ID/g
same,"Average Uptake (% ID/g), kidney",UM22B xenograft,2.13 ± 0.34 % ID/g
same,"Average Uptake (% ID/g), liver",UM22B xenograft,2.67 ± 0.44 % ID/g
same,"Average Uptake (% ID/g), muscle",UM22B xenograft,2.31 ± 0.44 % ID/g
same,"Average Uptake (% ID/g), whole tumor region of interest",UM22B xenograft,7.31 ± 0.78 % ID/g
same,"tumor uptake, peak voxel cluster value",UM22B xenograft; [9],approximately 15 % ID/g
F[B-](F)(F)[C@@H]1CCC[NH2+]1 [^18F-Pro-BF3],Km,amino acid transporters [3],65.6 ± 45.2 µM
F[B-](F)([18F])[C@@H]1CCC[NH2+]1 [^18F-Pro-BF3],inhibition of uptake by sodium free medium,"U87MG cells; 18F-Pro-BF3, 60 min incubation",76.2%
O=C(O)[C@@H]1CCCN1 [proline],inhibition at 25000 µM,"U87MG cells; Homo sapiens, U-87 MG, 1 h, read-out: inhibition of uptake of 18F-Pro-BF3",~80%
same,Km,amino acid transporters [8],67 ± 11.5 µM
same,Km,system P transporters; system P transporter with high KM,~5000 µM
same,Km,system P transporters; system P transporter with low KM,~100 µM
"^18F-fluorodeoxyglucose [^18F-FDG, reference compound]",cell uptake,U87MG human glioma cells,less than 5 % AD
